Patent US20040014812A1, “Remedies for keratoconjunctival diseases containing farnesyl acetate as the active ingredient” (SANTEN PHARMACEUTICAL CO. LTD, priority 2000, published 2004)

System: lacrimal gland-nictitating membrane-harderian gland-enucleated rabbit dry eye models
Test: Rose bengal intake of cornea in rabbit dry eye models after instillation of ophthalmic solutions
Assay type: in vivo
Details: rabbit dry eye model
Description: An effect of farnesylacetic acid on dry eye was studied by using lacrimal gland-nictitating membrane-harderian gland-enucleated rabbit dry eye models.
Lacrimal gland-nictitating membrane-harderian gland-enucleated rabbit dry eye models were prepared by reference to the method of Girbard et al. (Invest. Ophthalmol. Vis. Sci., 28: 225-228 (1987)). Namely, a 7:1 mixture of a 5% ketamine hydrochloride injection and a 2% xylazine hydrochloride injection was injected into rabbits in an amount of 1 ml/kg to anesthetize the rabbits systemically. A 0.4% oxybuprocaine hydrochloride ophthalmic solution was instilled into the rabbits, lower lid skin was dissected in length of about 5 mm along an orbital bone, and then a lacrimal gland was enucleated from the outside of a conjunctival sac. The skin at the dissected site was sutured with 4-0 sutures, and an ofloxacin eye ointment was applied to the sutured site. Next, a harderian gland was enucleated while drawing it out with a nictitating membrane. Finally, the ofloxacin eye ointment was applied to the enucleated site.
Farnesylacetic acid ophthalmic solutions were prepared by diluting farnesylacetic acid with the following vehicle so that its concentrations were 0.75, 7.5 and 75 μM. A gefarnate ophthalmic solution was prepared by diluting gefarnate with the same vehicle so that its concentration was 7.5 mM. All the obtained ophthalmic solutions had pH of 7.4 and osmotic pressure of 1.0.
Each farnesylacetic acid ophthalmic solution (50 μl) was instilled into the lacrimal gland-nictitating membrane-harderian gland-enucleated rabbits six times per day for two weeks (four rabbits and eight eyes per group. The vehicle and gefarnate were instilled similarly as a control group and a comparative group respectively.
Effects on dry eye were evaluated by measuring rose bengal intake. A 7:1 mixture of a 5% ketamine hydrochloride injection and a 2% xylazine hydrochloride injection was injected into the rabbits in an amount of 1 ml/kg to anesthetize the rabbits systemically, then eyelids were opened with an eye speculum, and the conjunctival sacs were filled with physiological saline containing 1% rose bengal. The eyes were maintained for 10 seconds and then washed with physiological saline. A 5% pentobarbital injection was injected into the rabbits to euthanatize them, and eyeballs were enucleated. Corneal pieces were prepared with a trephine having an inner diameter of 8 mm, put into 1 ml of 2 M sodium hydroxide and allowed to stand under light resistance for one day to dissolve corneal tissues completely. Absorbance at a wavelength of 560 nm of the obtained tissue-dissolved solutions was measured with a spectrophotometer.
Rose bengal stains a portion containing no mucin layer in keratoconjunctiva. […] Accordingly, when the mucin layer decreases because of dry eye, rose bengal intake of the corneal tissues increases, and the absorbance of the tissue-dissolved solution increases.

| Compound | Effect compared with gefarnate (7.5 mM administration group) (75 μM administration group, about 1/100 of the gefarnate concentration) | Rose bengal intake compared with vehicle administration group (0.75, 7.5 and 75 μM administration groups) | Absorbance (560 nm) of corneal tissue-dissolved solution (rose bengal intake) (ophthalmic solution 0.75 μM, 50 μl instilled six times per day for two weeks) | Absorbance (560 nm) of corneal tissue-dissolved solution (rose bengal intake) (ophthalmic solution 7.5 μM, 50 μl instilled six times per day for two weeks) | Absorbance (560 nm) of corneal tissue-dissolved solution (rose bengal intake) (ophthalmic solution 75 μM, 50 μl instilled six times per day for two weeks) | Absorbance (560 nm) of corneal tissue-dissolved solution (rose bengal intake) (ophthalmic solution 7.5 mM, instilled six times per day for two weeks) |
| --- | --- | --- | --- | --- | --- | --- |
| CC(C)=CCC/C(C)=C/CC/C(C)=C/CCC(=O)O [Farnesylacetic acid, farnesylacetic acid] | an effect equal to that of gefarnate | apparently less than that in the vehicle administration group | 0.169 | 0.139 | 0.093 | – |
| CC(C)=CCC/C(C)=C/CC/C(C)=C/CCC(=O)OC/C=C(\C)CCC=C(C)C [gefarnate, reference compound] | – | – | – | – | – | 0.075 |
